Tests used:
Experiment in all cases: relative viability (nuclei count vs DMSO), 5 days (fraction); higher = more cells survive
[1] = test system: EMC-BAC-2
Outline: (§1)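 Medians of duplicate plates are given as relative viability. That measure is the nuclei count in treated wells divided by the count in vehicle wells. Counts were taken on 4× images of lung cancer cell lines in 1536-well plates, 5 days after pin-tool dosing the day after seeding with one drug alone or a fixed anchor-drug dose plus five library-drug doses (not always all listed) in √10 steps.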

[2] = test system: EPLC-272H
Outline: as §1

[3] = test system: H3255
Outline: as §1

[4] = test system: HOP-62
Outline: as §1

[5] = test system: LCLC-97TM1
Outline: as §1

[6] = test system: LXF-289
Outline: as §1

[7] = test system: NCI-H1563
Outline: as §1

[8] = test system: NCI-H1650
Outline: as §1

[9] = test system: NCI-H1915
Outline: as §1

[10] = test system: NCI-H1993
Outline: as §1

[11] = test system: NCI-H2009
Outline: as §1

[12] = test system: NCI-H2023
Outline: as §1

[13] = test system: NCI-H2085
Outline: as §1

[14] = test system: NCI-H2126
Outline: as §1

[15] = test system: NCI-H2347
Outline: as §1

[16] = test system: NCI-H322M
Outline: as §1

[17] = test system: NCI-H647
Outline: as §1

[18] = test system: NCI-H661
Outline: as §1

[19] = test system: NCI-H727
Outline: as §1

[20] = test system: PC-14
Outline: as §1

[21] = test system: SK-LU-1
Outline: as §1

[22] = test system: SW 1573
Outline: as §1

`CC1(C)CCC(c2ccc(Cl)cc2)=C(CN2CCN(c3ccc(C(=O)NS(=O)(=O)c4ccc(N[C@H](CCN5CCOCC5)CSc5ccccc5)c(S(=O)(=O)C(F)(F)F)c4)cc3)CC2)C1` [Navitoclax] + CS(=O)(=O)CCNCc1ccc(-c2ccc3ncnc(Nc4ccc(OCc5cccc(F)c5)c(Cl)c4)c3c2)o1 [Lapatinib] (partner 2 µM) was tested, and the relative viability ([1]; first compound 0.005 µM) was 0.895, the relative viability ([1]; first compound 0.01581 µM) was 0.893 and the relative viability ([1]; first compound 0.05 µM) was 0.884. The relative viability ([1]; first compound 0.1581 µM) was 0.963, the relative viability ([1]; first compound 0.5 µM) was 0.943 and the relative viability ([2]; first compound 0.005 µM) was 0.904. It also gave a relative viability ([2]; first compound 0.1581 µM) of 0.906, a relative viability ([2]; first compound 0.5 µM) of 0.881 and a relative viability ([3]; first compound 0.005 µM) of 0.271. It also gave a relative viability ([3]; first compound 0.01581 µM) of 0.258, a relative viability ([3]; first compound 0.05 µM) of 0.226 and a relative viability ([3]; first compound 0.1581 µM) of 0.25. For the same compound, the relative viability ([3]; first compound 0.5 µM) was 0.19, the relative viability ([4]; first compound 0.005 µM) was 0.924 and the relative viability ([4]; first compound 0.01581 µM) was 1.12. It also gave a relative viability ([4]; first compound 0.05 µM) of 0.777, a relative viability ([4]; first compound 0.1581 µM) of 0.947 and a relative viability ([4]; first compound 0.5 µM) of 0.972. It also gave a relative viability ([5]; first compound 0.005 µM) of 0.884, a relative viability ([5]; first compound 0.01581 µM) of 1.21 and a relative viability ([5]; first compound 0.05 µM) of 0.865. It also gave a relative viability ([5]; first compound 0.1581 µM) of 0.856, a relative viability ([5]; first compound 0.5 µM) of 1.17 and a relative viability ([6]; first compound 0.005 µM) of 0.9. For the same compound, the relative viability ([6]; first compound 0.01581 µM) was 0.91, the relative viability ([6]; first compound 0.05 µM) was 0.864 and the relative viability ([6]; first compound 0.1581 µM) was 0.901. For the same compound, the relative viability ([6]; first compound 0.5 µM) was 0.902, the relative viability ([7]; first compound 0.005 µM) was 1.08 and the relative viability ([7]; first compound 0.01581 µM) was 1.23. It also gave a relative viability ([7]; first compound 0.05 µM) of 0.877, a relative viability ([7]; first compound 0.1581 µM) of 1.05 and a relative viability ([7]; first compound 0.5 µM) of 1.44. The relative viability ([8]; first compound 0.005 µM) was 0.818, the relative viability ([8]; first compound 0.01581 µM) was 1.07 and the relative viability ([8]; first compound 0.05 µM) was 0.88. For the same compound, the relative viability ([8]; first compound 0.1581 µM) was 1.02, the relative viability ([8]; first compound 0.5 µM) was 0.957 and the relative viability ([9]; first compound 0.005 µM) was 0.915. It also gave a relative viability ([9]; first compound 0.01581 µM) of 0.953, a relative viability ([9]; first compound 0.05 µM) of 0.819 and a relative viability ([9]; first compound 0.1581 µM) of 0.862. The relative viability ([9]; first compound 0.5 µM) was 0.868, the relative viability ([10]; first compound 0.005 µM) was 0.849 and the relative viability ([10]; first compound 0.01581 µM) was 0.855. It also gave a relative viability ([10]; first compound 0.05 µM) of 0.756, a relative viability ([10]; first compound 0.1581 µM) of 0.795 and a relative viability ([10]; first compound 0.5 µM) of 0.883. It also gave a relative viability ([11]; first compound 0.005 µM) of 0.938, a relative viability ([11]; first compound 0.01581 µM) of 1.14 and a relative viability ([11]; first compound 0.05 µM) of 0.953. The relative viability ([11]; first compound 0.1581 µM) was 0.9, the relative viability ([11]; first compound 0.5 µM) was 0.998 and the relative viability ([12]; first compound 0.005 µM) was 0.953. The relative viability ([12]; first compound 0.01581 µM) was 1.13, the relative viability ([12]; first compound 0.05 µM) was 0.685 and the relative viability ([12]; first compound 0.1581 µM) was 0.927. It also gave a relative viability ([12]; first compound 0.5 µM) of 0.816, a relative viability ([13]; first compound 0.005 µM) of 0.754 and a relative viability ([13]; first compound 0.01581 µM) of 0.895. For the same compound, the relative viability ([13]; first compound 0.05 µM) was 0.692, the relative viability ([13]; first compound 0.1581 µM) was 0.822 and the relative viability ([13]; first compound 0.5 µM) was 0.814. For the same compound, the relative viability ([14]; first compound 0.005 µM) was 0.784, the relative viability ([14]; first compound 0.01581 µM) was 0.757 and the relative viability ([14]; first compound 0.05 µM) was 0.739. It also gave a relative viability ([14]; first compound 0.1581 µM) of 0.729, a relative viability ([14]; first compound 0.5 µM) of 0.702 and a relative viability ([15]; first compound 0.005 µM) of 0.957. It also gave a relative viability ([15]; first compound 0.01581 µM) of 1.09, a relative viability ([15]; first compound 0.05 µM) of 0.753 and a relative viability ([15]; first compound 0.1581 µM) of 0.765. It also gave a relative viability ([15]; first compound 0.5 µM) of 0.923, a relative viability ([16]; first compound 0.005 µM) of 0.672 and a relative viability ([16]; first compound 0.01581 µM) of 0.603. It also gave a relative viability ([16]; first compound 0.05 µM) of 0.625, a relative viability ([16]; first compound 0.1581 µM) of 0.535 and a relative viability ([16]; first compound 0.5 µM) of 0.576. It also gave a relative viability ([17]; first compound 0.005 µM) of 0.888, a relative viability ([17]; first compound 0.01581 µM) of 1.05 and a relative viability ([17]; first compound 0.05 µM) of 1.51. It also gave a relative viability ([17]; first compound 0.1581 µM) of 1.1, a relative viability ([17]; first compound 0.5 µM) of 0.918 and a relative viability ([18]; first compound 0.005 µM) of 0.542. The relative viability ([18]; first compound 0.01581 µM) was 0.613, the relative viability ([18]; first compound 0.05 µM) was 0.484 and the relative viability ([18]; first compound 0.1581 µM) was 0.504. It also gave a relative viability ([18]; first compound 0.5 µM) of 0.391, a relative viability ([19]; first compound 0.005 µM) of 0.925 and a relative viability ([19]; first compound 0.01581 µM) of 1.01. For the same compound, the relative viability ([19]; first compound 0.1581 µM) was 0.982, the relative viability ([19]; first compound 0.5 µM) was 0.657 and the relative viability ([20]; first compound 0.005 µM) was 0.343. It also gave a relative viability ([20]; first compound 0.01581 µM) of 0.343, a relative viability ([20]; first compound 0.05 µM) of 0.283 and a relative viability ([20]; first compound 0.1581 µM) of 0.385. The relative viability ([20]; first compound 0.5 µM) was 0.338, the relative viability ([21]; first compound 0.005 µM) was 0.849 and the relative viability ([21]; first compound 0.01581 µM) was 1.12. It also gave a relative viability ([21]; first compound 0.05 µM) of 0.886, a relative viability ([21]; first compound 0.1581 µM) of 0.896 and a relative viability ([21]; first compound 0.5 µM) of 0.753. It also gave a relative viability ([22]; first compound 0.005 µM) of 1.22, a relative viability ([22]; first compound 0.01581 µM) of 1.08 and a relative viability ([22]; first compound 0.05 µM) of 1.01. The relative viability ([22]; first compound 0.1581 µM) was 1.04 and the relative viability ([22]; first compound 0.5 µM) was 1.09.
